In patent publication US6110965A, “Ketolides from the class of 15-membered lactams” (PLIVA, farmaceutska, kemijska, prehrambena i kozmeticka …, priority 1998, dated 2000):
Values after ≈ are worked out from the molar mass of the structure shown. Where two headings read alike, the source gives them in different places.

How the values were obtained:
[1] = tested on: Streptococcus pneumoniae ATCC 6305; assay: Antibacterial in vitro action (MIC), microdilution process according to NCCLS; assay type: cell-based
[2] = tested on: Proteus mirabilis ATCC 12453; assay: as above; assay type: cell-based
[3] = in vivo; cited from earlier work
[4] = tested on: Haemophilus influenzae ATCC 49247; assay: Antibacterial in vitro action (MIC), microdilution process according to NCCLS; assay type: cell-based
[5] = tested on: Clostridium perfringens ATCC 13124; assay: microbe, parasite or virus in culture; assay type: cell-based; settings: ATCC13124, read-out: Antibacterial in vitro action (MIC, mg/l)
[6] = tested on: Yersinia enterocolitica ATCC 9610; assay: Antibacterial in vitro action (MIC), microdilution process according to NCCLS; assay type: cell-based
[7] = tested on: Moraxella catarrhalis ATCC 25238; assay: as above; assay type: cell-based
[8] = tested on: Staphylococcus aureus ATCC 25923; assay: as above; assay type: cell-based
human phagocyte cells = settings: cited from earlier work
[9] = tested on: Haemophilus influenzae ATCC 49766; assay: Antibacterial in vitro action (MIC), microdilution process according to NCCLS; assay type: cell-based
[10] = tested on: Salmonella choleraesuis ATCC 13076; assay: as above; assay type: cell-based; settings: Salmonella enterica, read-out: Antibacterial in vitro action (MIC, mg/l)
[11] = tested on: Shigella flexneri ATCC 12022; assay: as above; assay type: cell-based; settings: ATCC12022, read-out: Antibacterial in vitro action (MIC, mg/l)
Description: Antibacterial in vitro action of the new compounds of the general formula (I), wherein A, B, R^1, R^2 and R^3 have the above-mentioned meanings, and of their pharmaceutically acceptable addition salts with inorganic or organic acids was determined on a series of standard test microorganisms and clinical isolates by microdilution process according to the protocol NCCLS (The National Commitee for Clinical Laboratory Standards, Document M7-A2, Vol. 10, No. 8, 1990 and Document M11-A2, Vol. 10, 15,1991). The control of the laboratory process was performed by means of control strain Staphyloccocus aureus ATTC 29213 (The American Type Culture Collection) according to protocol NCCLS (Document M7-A2, Table 3, M100-S4).
The antibacterial in vitro action on a series of standard test microorganisms for 6-O-methyl-8a-aza-8a-homoerythromycin A from Example 3 in comparison with azithromycin, erythromycin and clarithromycin is represented in Table 1.

[12] = tested on: Escherichia coli ATCC 25922; assay: as above; assay type: cell-based; settings: ATCC25922, read-out: Antibacterial in vitro action (MIC, mg/l)
[13] = tested on: Streptococcus pyogenes ATCC 19615; assay: as above; assay type: cell-based
[14] = tested on: Staphylococcus epidermidis ATCC 12228; assay: as above; assay type: cell-based
[15] = tested on: Pseudomonas aeruginosa ATCC 25619; assay: as above; assay type: cell-based
[16] = tested on: Campylobacter jejuni ATCC 33291; assay: as above; assay type: cell-based
[17] = tested on: Citroobacter freundii ATCC 8090; assay: as above; assay type: cell-based; settings: read-out: Antibacterial in vitro action (MIC, mg/l)
[18] = tested on: Enterococcus faecalis ATCC 35550; assay: as above; assay type: cell-based
[19] = tested on: Listeria monocytogenes ATCC 7644; assay: as above; assay type: cell-based
gram-negative bacteria = settings: cited from earlier work
[20] = tested on: Campylobacter fetus ATCC 19438; assay: Antibacterial in vitro action (MIC), microdilution process according to NCCLS; assay type: cell-based
[21] = tested on: Proteus mirabilis ATCC 43071; assay: as above; assay type: cell-based
[22] = tested on: gram-positive bacterial strains; settings: compared to erythromycin A; cited from earlier work
[23] = compared to erythromycin A; cited from earlier work
[24] = oral preparations; cited from earlier work
[25] = Streptococcus pneumoniae, ATCC6305, read-out: Antibacterial in vitro action (MIC, mg/l)
[26] = ATCC12453, Proteus mirabilis ATCC 12453, read-out: Antibacterial in vitro action (MIC, mg/l)
[27] = ATCC49247, Haemophilus influenzae ATCC 49247, read-out: Antibacterial in vitro action (MIC, mg/l)
[28] = ATCC9610, Yersinia enterocolitica ATCC 9610, read-out: Antibacterial in vitro action (MIC, mg/l)
[29] = Moraxella catarrhalis, ATCC25238, read-out: Antibacterial in vitro action (MIC, mg/l)
[30] = ATCC25923, Staphylococcus aureus ATCC 25923, read-out: Antibacterial in vitro action (MIC, mg/l)
[31] = ATCC49766, Haemophilus influenzae ATCC 49766, read-out: Antibacterial in vitro action (MIC, mg/l)
[32] = Salmonella choleraesuis ATCC 13076
[33] = Streptococcus pyogenes, ATCC19615, read-out: Antibacterial in vitro action (MIC, mg/l)
[34] = ATCC12228, Staphylococcus epidermidis ATCC 12228, read-out: Antibacterial in vitro action (MIC, mg/l)
[35] = ATCC25619, Pseudomonas aeruginosa ATCC 25619, read-out: Antibacterial in vitro action (MIC, mg/l)
[36] = Campylobacter jejuni, ATCC33291, read-out: Antibacterial in vitro action (MIC, mg/l)
[37] = Citroobacter freundii ATCC 8090
[38] = ATCC35550, Enterococcus faecalis ATCC 35550, read-out: Antibacterial in vitro action (MIC, mg/l)
[39] = Listeria monocytogenes, ATCC7644, read-out: Antibacterial in vitro action (MIC, mg/l)
[40] = Campylobacter fetus, ATCC19438, read-out: Antibacterial in vitro action (MIC, mg/l)
[41] = ATCC43071, Proteus mirabilis ATCC 43071, read-out: Antibacterial in vitro action (MIC, mg/l)

SMILES	MIC [1, 25] [mg/L]	MIC [2, 26] [mg/L]	MIC [4, 27] [mg/L]	MIC [5] [mg/L]	MIC [6, 28] [mg/L]	MIC [7, 29] [mg/L]	MIC [8, 30] [mg/L]	MIC [9, 31] [mg/L]	MIC [10, 32] [mg/L]	MIC [11] [mg/L]	MIC [12] [mg/L]	MIC [13, 33] [mg/L]	MIC [14, 34] [mg/L]	MIC [15, 35] [mg/L]	MIC [16, 36] [mg/L]	MIC [17, 37] [mg/L]	MIC [18, 38] [mg/L]	MIC [19, 39] [mg/L]	MIC [20, 40] [mg/L]	MIC [21, 41] [mg/L]	other results
CC[C@H]1OC(=O)[C@H](C)[C@@H](O[C@H]2C[C@@](C)(OC)[C@@H](O)[C@H](C)O2)[C@H](C)[C@@H](O[C@@H]2O[C@H](C)C[C@H](N(C)C)[C@H]2O)[C@](C)(O)C[C@@H](C)CN(C)[C@H](C)[C@@H](O)[C@]1(C)O [Az, 9-deoxo-9a-methyl-9a-aza-9a-homoerythromycin A]	< 0.125	64 (≈ 85.4 µM)	0.5 (≈ 0.668 µM)	0.125 (≈ 0.167 µM)	1 (≈ 1.34 µM)	< 0.125	0.5 (≈ 0.668 µM)	1 (≈ 1.34 µM)	2 (≈ 2.67 µM)	1 (≈ 1.34 µM)	2 (≈ 2.67 µM)	< 0.125	1 (≈ 1.34 µM)	64 (≈ 85.4 µM)	< 0.125	4 (≈ 5.34 µM)	0.5 (≈ 0.668 µM)	< 0.125	< 0.125	64 (≈ 85.4 µM)	biological half-time [3]: long biological half-time; penetration and accumulation within human phagocyte cells (human phagocyte cells): able to penetrate and to accumulate within human phagocyte cells; antimicrobial spectrum (gram-negative bacteria): broad antimicrobial spectrum including gram-negative bacteria
CC[C@H]1OC(=O)[C@H](C)[C@@H](O[C@H]2C[C@@](C)(OC)[C@@H](O)[C@H](C)O2)[C@H](C)[C@@H](O[C@@H]2O[C@H](C)C[C@H](N(C)C)[C@H]2O)[C@](C)(OC)C[C@@H](C)C(=O)[C@H](C)[C@@H](O)[C@]1(C)O [Cl, 6-O-methyl-erythromycin A]	< 0.125	128 (≈ 171 µM)	4 (≈ 5.35 µM)	0.125 (≈ 0.167 µM)	16 (≈ 21.4 µM)	< 0.125	0.5 (≈ 0.668 µM)	8 (≈ 10.7 µM)	32 (≈ 42.8 µM)	32 (≈ 42.8 µM)	32 (≈ 42.8 µM)	< 0.125	0.25 (≈ 0.334 µM)	> 128	< 0.125	64 (≈ 85.6 µM)	0.25 (≈ 0.334 µM)	< 0.125	< 0.125	> 128	in vitro activity against gram-positive bacterial strains [22]: increased in vitro activity against gram-positive bacterial strains; stability in acidic medium [23]: considerably more stable in acidic medium
CC[C@H]1OC(=O)[C@H](C)[C@@H](O[C@H]2C[C@@](C)(OC)[C@@H](O)[C@H](C)O2)[C@H](C)[C@@H](O[C@@H]2O[C@H](C)C[C@H](N(C)C)[C@H]2O)[C@](C)(O)C[C@@H](C)C(=O)[C@H](C)[C@@H](O)[C@]1(C)O [Er, erythromycin A]	< 0.125			0.5 (≈ 0.681 µM)		< 0.125				32 (≈ 43.6 µM)	32 (≈ 43.6 µM)	< 0.125			< 0.125			< 0.125	< 0.125		MIC ([2]; Proteus mirabilis, ATCC12453, read-out: Antibacterial in vitro action (MIC, mg/l)): > 128 mg/L; MIC ([4]; Haemophilus influenzae, ATCC49247, read-out: Antibacterial in vitro action (MIC, mg/l)): 2 mg/L (≈ 2.73 µM); MIC ([6]; Yersinia enterocolitica, ATCC9610, read-out: Antibacterial in vitro action (MIC, mg/l)): 16 mg/L (≈ 21.8 µM); MIC ([8]; Staphylococcus aureus, ATCC25923, read-out: Antibacterial in vitro action (MIC, mg/l)): 0.25 mg/L (≈ 0.341 µM); MIC ([9]; Haemophilus influenzae, ATCC49766, read-out: Antibacterial in vitro action (MIC, mg/l)): 4 mg/L (≈ 5.45 µM); MIC [10]: 64 mg/L (≈ 87.2 µM); gastric intolerance [24]: gastric intolerance in many patients; MIC ([14]; Staphylococcus epidermidis, ATCC12228, read-out: Antibacterial in vitro action (MIC, mg/l)): 0.25 mg/L (≈ 0.341 µM); MIC ([15]; Pseudomonas aeruginosa, ATCC25619, read-out: Antibacterial in vitro action (MIC, mg/l)): > 128 mg/L; MIC [17]: 64 mg/L (≈ 87.2 µM); MIC ([18]; Enterococcus faecalis, ATCC35550, read-out: Antibacterial in vitro action (MIC, mg/l)): 1 mg/L (≈ 1.36 µM); MIC ([21]; Proteus mirabilis, ATCC43071, read-out: Antibacterial in vitro action (MIC, mg/l)): > 128 mg/L
CC[C@H]1OC(=O)[C@H](C)[C@@H](O[C@H]2C[C@@](C)(OC)[C@@H](O)[C@H](C)O2)[C@H](C)[C@@H](O[C@@H]2O[C@H](C)C[C@H](N(C)C)[C@H]2O)[C@](C)(OC)C[C@@H](C)NC(=O)[C@H](C)[C@@H](O)[C@]1(C)O [Example 3, 6-O-methyl-8a-aza-8a-homoerythromycin A]		32 (≈ 41.9 µM)	1 (≈ 1.31 µM)	0.25 (≈ 0.328 µM)	4 (≈ 5.24 µM)		0.5 (≈ 0.655 µM)	1 (≈ 1.31 µM)	8 (≈ 10.5 µM)	4 (≈ 5.24 µM)	8 (≈ 10.5 µM)		0.5 (≈ 0.655 µM)	32 (≈ 41.9 µM)		16 (≈ 21 µM)	1 (≈ 1.31 µM)			32 (≈ 41.9 µM)	MIC ([1]; ATCC6305, Streptococcus pneumoniae ATCC 6305, read-out: Antibacterial in vitro action (MIC, mg/l)): < 0.125 mg/L; MIC ([7]; ATCC25238, Moraxella catarrhalis ATCC 25238, read-out: Antibacterial in vitro action (MIC, mg/l)): < 0.125 mg/L; MIC ([13]; ATCC19615, Streptococcus pyogenes ATCC 19615, read-out: Antibacterial in vitro action (MIC, mg/l)): < 0.125 mg/L; MIC ([16]; ATCC33291, Campylobacter jejuni ATCC 33291, read-out: Antibacterial in vitro action (MIC, mg/l)): < 0.125 mg/L; MIC ([19]; ATCC7644, Listeria monocytogenes ATCC 7644, read-out: Antibacterial in vitro action (MIC, mg/l)): < 0.125 mg/L; MIC ([20]; ATCC19438, Campylobacter fetus ATCC 19438, read-out: Antibacterial in vitro action (MIC, mg/l)): < 0.125 mg/L
